Reference: patent US9399646B2 (Genentech, Inc., priority 2010, dated 2016)

Key:
[1] = tested on: MCF-7 cells; assay: Breast cancer cell viability assay (CellTiter-Glo, 5 days); type: cell-based; conditions: 5 days' compound exposure; for IC50: Homo sapiens, MCF7, 120 h
Procedure, shortened: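 MCF-7 cells, 320 per well in RPMI with 10% FBS and 20 mM HEPES, adhered overnight, then exposed 5 days to an eleven-point semilog dilution (final 0.3-0.000003 μM). CellTiter-Glo luminescence read; % viability = (sample − cell-free background)/(untreated − background) × 100.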

[2] = biological target: T1, ER-α in MCF-7 cells (Homo sapiens, UniProt P03372); assay: Breast cancer cell ER-α in cell western assay (SP1); type: cell-based; parameters: endogenous in cells; host or cells: MCF-7; conditions: 4 or 24 hr post compound addition; for Emax: MCF7, SP1 antibody, read-out: ER-α In Cell Western Assay (SP1) Max Response; for DC50: SP1 antibody, read-out: ER-α In Cell Western Assay (SP1) IC50
T1 sequence (P03372 1-595): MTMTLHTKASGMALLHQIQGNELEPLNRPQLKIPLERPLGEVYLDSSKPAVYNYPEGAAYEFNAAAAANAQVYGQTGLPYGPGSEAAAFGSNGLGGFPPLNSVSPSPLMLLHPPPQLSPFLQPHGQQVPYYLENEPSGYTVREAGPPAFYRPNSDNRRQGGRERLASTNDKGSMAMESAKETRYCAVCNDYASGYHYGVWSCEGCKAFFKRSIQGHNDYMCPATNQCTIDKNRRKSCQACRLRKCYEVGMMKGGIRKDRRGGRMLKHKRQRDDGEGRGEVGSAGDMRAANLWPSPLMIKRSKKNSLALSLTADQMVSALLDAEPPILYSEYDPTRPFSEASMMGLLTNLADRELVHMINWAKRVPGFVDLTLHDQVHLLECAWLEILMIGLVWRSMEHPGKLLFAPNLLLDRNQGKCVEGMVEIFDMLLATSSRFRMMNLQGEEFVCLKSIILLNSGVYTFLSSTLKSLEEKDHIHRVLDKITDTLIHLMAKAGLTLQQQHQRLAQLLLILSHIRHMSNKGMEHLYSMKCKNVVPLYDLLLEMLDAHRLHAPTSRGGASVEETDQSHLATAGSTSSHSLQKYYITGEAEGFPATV
Procedure, shortened: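 Read-out is infrared in-cell western: SP1-detected ER intensity at 800 nm divided by DRAQ5 DNA intensity at 700 nm, relative to untreated wells ×100.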

Structure (SMILES) | IC50 [1] [nM] | Emax [2] [%] | DC50 [2] [nM] | MCF7 Viability Assay Max Response [1]
CC/C(=C(/c1ccc(/C=C/C(=O)O)cc1)c1ccc2scnc2c1)c1cccc(Oc2ccccc2)c1 [Compound 299, (E)-3-(4-((E)-1-(Benzo[d]thiazol-5-yl)-2-(3-phenoxyphenyl)but-1-en-1-yl)phenyl)acrylic acid] | > 100 | ≥ 40 | ≤ 100 | ++ (++ = a single % value ≧ 40%)
CC/C(=C(/c1ccc(/C=C/C(=O)O)cc1)c1ccc2[nH]ncc2c1)c1ccncc1C#N [Compound 303, (E)-3-(4-((E)-2-(3-Cyanopyridin-4-yl)-1-(1H-indazol-5-yl)but-1-en-1-yl)phenyl)acrylic acid] | > 100 | ≥ 40 | > 100 | ++ (++ = a single % value ≧ 40%)
CC/C(=C(/c1ccc(/C=C/C(=O)O)cc1)c1ccc2[nH]ncc2c1)c1ccncc1C(F)(F)F [Compound 304, (E)-3-(4-((E)-1-(1H-Indazol-5-yl)-2-(3-(trifluoromethyl)pyridin-4-yl)but-1-en-1-yl)phenyl)acrylic acid] | ≤ 100 | ≥ 40 | ≤ 100 | ++ (++ = a single % value ≧ 40%)
O=C(O)/C=C/c1ccc(/C(=C(\c2ccncc2Cl)C2CCC2)c2ccc3[nH]ncc3c2)cc1 [Compound 305, (E)-3-(4-((E)-2-(3-Chloropyridin-4-yl)-2-cyclobutyl-1-(1H-indazol-5-yl)vinyl)phenyl)acrylic acid] | ≤ 100 | ≥ 40 | ≤ 100 | ++ (++ = a single % value ≧ 40%)
CC/C(=C(/c1ccc(/C=C/C(=O)O)cc1)c1ccc2[nH]nc(F)c2c1)c1ccncc1Cl [Compound 306, (E)-3-(4-((E)-2-(3-Chloropyridin-4-yl)-1-(3-fluoro-1H-indazol-5-yl)but-1-en-1-yl)phenyl)acrylic acid] | ≤ 100 | ≥ 40 | ≤ 100 | ++ (++ = a single % value ≧ 40%)
O=C(O)/C=C/c1ccc(/C(=C(\c2ccncc2Cl)C2CCC2)c2ccc3[nH]nc(F)c3c2)cc1 [Compound 307, (E)-3-(4-((E)-2-(3-Chloropyridin-4-yl)-2-cyclobutyl-1-(3-fluoro-1H-indazol-5-yl)vinyl)phenyl)acrylic acid] | ≤ 100 | ≥ 40 | ≤ 100 | ++ (++ = a single % value ≧ 40%)
O=C(O)/C=C/c1ccc(/C(=C(\c2ccc(F)cc2Cl)C2CCC2)c2ccc3nccn3c2)cc1 [Compound 311, (E)-3-(4-((E)-2-(2-Chloro-4-fluorophenyl)-2-cyclobutyl-1-(imidazo[1,2-a]pyridin-6-yl)vinyl)phenyl)acrylic acid] | ≤ 100 | ≥ 40 | ≤ 100 | ++ (++ = a single % value ≧ 40%)
CC/C(=C(/c1ccc(/C=C/C(=O)O)cc1)c1ccc2[nH]nc(F)c2c1)c1cscc1C [Compound 312, (E)-3-(4-((E)-1-(3-Fluoro-1H-indazol-5-yl)-2-(4-methylthiophen-3-yl)but-1-en-1-yl)phenyl)acrylic acid] | ≤ 100 | ≥ 40 | ≤ 100 | ++ (++ = a single % value ≧ 40%)
Cc1cscc1/C(=C(\c1ccc(/C=C/C(=O)O)cc1)c1ccc2[nH]nc(F)c2c1)C1CCC1 [Compound 313, (E)-3-(4-((E)-2-Cyclobutyl-1-(3-fluoro-1H-indazol-5-yl)-2-(4-methylthiophen-3-yl)vinyl)phenyl)acrylic acid] | ≤ 100 | ≥ 40 | ≤ 100 | ++ (++ = a single % value ≧ 40%)

Further lines, with some results ahead:

IC50 [1] [nM] | Emax [2] [%] | DC50 [2] [nM] | Structure (SMILES) | MCF7 Viability Assay Max Response [1]
≤ 100 | ≥ 40 | ≤ 100 | CC/C(=C(/c1ccc(/C=C/C(=O)O)cc1)c1ccc2[nH]ncc2c1)c1ccc(Oc2cccnc2)cc1 [Compound 292, (E)-3-(4-((E)-1-(1H-Indazol-5-yl)-2-(4-(pyridin-3-yloxy)phenyl)but-1-en-1-yl)phenyl)acrylic acid] | ++ (++ = a single % value ≧ 40%)
≤ 100 | ≥ 40 | ≤ 100 | CC/C(=C(/c1ccc(/C=C/C(=O)O)cc1)c1ccc2[nH]ncc2c1)c1ccc(Oc2cnccn2)cc1 [Compound 293, (E)-3-(4-((E)-1-(1H-Indazol-5-yl)-2-(4-(pyrazin-2-yloxy)phenyl)but-1-en-1-yl)phenyl)acrylic acid] | ++ (++ = a single % value ≧ 40%)
≤ 100 | ≥ 40 | ≤ 100 | CC/C(=C(/c1ccc(/C=C/C(=O)O)cc1)c1ccc2[nH]ncc2c1)c1ccc(F)c(Oc2ccccc2)c1 [Compound 294, (E)-3-(4-((E)-2-(4-Fluoro-3-phenoxyphenyl)-1-(1H-indazol-5-yl)but-1-en-1-yl)phenyl)acrylic acid] | ++ (++ = a single % value ≧ 40%)
≤ 100 | ≥ 40 | ≤ 100 | CC/C(=C(/c1ccc(/C=C/C(=O)O)cc1)c1ccc2[nH]ncc2c1)c1ccc(Oc2ccccc2)c(F)c1 [Compound 295, (E)-3-(4-((E)-2-(3-Fluoro-4-phenoxyphenyl)-1-(1H-indazol-5-yl)but-1-en-1-yl)phenyl)acrylic acid] | ++ (++ = a single % value ≧ 40%)
≤ 100 | ≥ 40 | ≤ 100 | CC/C(=C(/c1ccc(/C=C/C(=O)O)cc1)c1ccc2[nH]ncc2c1F)c1ccc(Oc2ccccn2)cc1 [Compound 296, (E)-3-(4-((E)-1-(4-Fluoro-1H-indazol-5-yl)-2-(4-(pyridin-2-yloxy)phenyl)but-1-en-1-yl)phenyl)acrylic acid] | ++ (++ = a single % value ≧ 40%)
≤ 100 | ≥ 40 | ≤ 100 | CC/C(=C(/c1ccc(/C=C/C(=O)O)cc1)c1ccc2[nH]ncc2c1)c1cc(Oc2ccccc2)ccc1C [Compound 297, (E)-3-(4-((E)-1-(1H-Indazol-5-yl)-2-(2-methyl-5-phenoxyphenyl)but-1-en-1-yl)phenyl)acrylic acid] | ++ (++ = a single % value ≧ 40%)
≤ 100 | ≥ 40 | ≤ 100 | CC/C(=C(/c1ccc(/C=C/C(=O)O)cc1)c1ccc2[nH]ncc2c1)c1cccc(Oc2ccccc2)c1F [Compound 298, (E)-3-(4-((E)-2-(2-Fluoro-3-phenoxyphenyl)-1-(1H-indazol-5-yl)but-1-en-1-yl)phenyl)acrylic acid] | ++ (++ = a single % value ≧ 40%)
> 100 | ≥ 40 | ≤ 100 | CC/C(=C(/c1ccc(/C=C/C(=O)O)cc1)c1ccc2scnc2c1)c1cccc(Oc2ccccn2)c1 [Compound 300, (E)-3-(4-((E)-1-(Benzo[d]thiazol-5-yl)-2-(3-(pyridin-2-yloxy)phenyl)but-1-en-1-yl)phenyl)acrylic acid] | ++ (++ = a single % value ≧ 40%)
> 100 | ≥ 40 | ≤ 100 | CC/C(=C(/c1ccc(/C=C/C(=O)O)cc1)c1ccc2scnc2c1)c1cccc(Oc2cnccn2)c1 [Compound 301, (E)-3-(4-((E)-1-(Benzo[d]thiazol-5-yl)-2-(3-(pyrazin-2-yloxy)phenyl)but-1-en-1-yl)phenyl)acrylic acid] | ++ (++ = a single % value ≧ 40%)
≤ 100 | ≥ 40 | ≤ 100 | CC/C(=C(/c1ccc(/C=C/C(=O)O)cc1)c1ccc2[nH]ncc2c1)c1ccc([S+]([O-])C(F)(F)F)cc1 (stereo not drawn) [Compound 302, (E)-3-(4-((E)-1-(1H-Indazol-5-yl)-2-(4-((trifluoromethyl)sulfinyl)phenyl)but-1-en-1-yl)phenyl)acrylic acid] | ++ (++ = a single % value ≧ 40%)
≤ 100 | ≥ 40 | ≤ 100 | CC/C(=C(/c1ccc(/C=C/C(=O)O)cc1)c1ccc2[nH]ncc2c1)c1ccc2sncc2c1 [Compound 314, (E)-3-(4-((E)-2-(Benzo[d]isothiazol-5-yl)-1-(1H-indazol-5-yl)but-1-en-1-yl)phenyl)acrylic acid] | ++ (++ = a single % value ≧ 40%)
≤ 100 | ≥ 40 | ≤ 100 | CC/C(=C(/c1ccc(/C=C/C(=O)O)cc1)c1ccc2[nH]ncc2c1)c1ccc(Oc2ccncc2)cc1 [Compound 315, (E)-3-(4-((E)-1-(1H-Indazol-5-yl)-2-(4-(pyridin-4-yloxy)phenyl)but-1-en-1-yl)phenyl)acrylic acid] | ++ (++ = a single % value ≧ 40%)
